# Results published in PubChem BioAssay AID651762 (The Scripps Research Institute Molecular Screening Center, 2012).
# The source made the active and inactive calls. How the calls were made is not given here.
# Target: Mu-type opioid receptor (Homo sapiens) (UniProt P35372)
# Assay: activators of OPRM1-OPRD1 heterodimerization, late-stage follow-up, cell-based, luminescence, dose response, set 2 (AID 651762)
# Conditions: cell-based heterodimer formation, luminescence complementation
# Sequence of Mu-type opioid receptor (Homo sapiens) (P35372 whole entry, looked up): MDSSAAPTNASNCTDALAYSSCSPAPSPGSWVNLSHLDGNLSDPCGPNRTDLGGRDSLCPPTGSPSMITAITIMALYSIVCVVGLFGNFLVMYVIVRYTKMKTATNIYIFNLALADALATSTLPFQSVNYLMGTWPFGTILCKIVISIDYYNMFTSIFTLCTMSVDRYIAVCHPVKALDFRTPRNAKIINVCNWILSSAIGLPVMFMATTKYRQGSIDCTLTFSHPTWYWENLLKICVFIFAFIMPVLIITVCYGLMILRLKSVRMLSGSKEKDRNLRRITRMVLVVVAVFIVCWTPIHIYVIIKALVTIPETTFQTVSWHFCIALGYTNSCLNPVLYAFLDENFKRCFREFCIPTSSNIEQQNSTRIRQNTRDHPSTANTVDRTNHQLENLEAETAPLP
row,EC50,Structure (SMILES)
1,> 50 µM (inactive),CCOC(=O)C1CCN(CCC(=O)Nc2ccc(C)cc2)CC1
2,> 50 µM (inactive),CCOC(=O)C1(CCc2ccccc2)CCN(C(=O)Nc2ccc(C)cc2C)CC1
3,> 50 µM (inactive),CCOC(=O)C1CCCCN1Cc1ccc(NC(C)=O)cc1 (stereo not drawn)
4,> 50 µM (inactive),CCOC(=O)C1(CCOc2ccccc2)CCCN(Cc2ccc(NC(C)=O)cc2)C1 (stereo not drawn)
5,> 50 µM (inactive),CCOC(=O)C1(CCc2ccccc2)CCN(Cc2ccc(C(=O)OC)cc2)CC1
6,> 50 µM (inactive),CCOC(=O)C1(Cc2ccc(OC)cc2)CCN(C(=O)c2ccc(N(C)C)cc2)CC1
7,> 50 µM (inactive),CCOC(=O)C1(Cc2cccc(OC)c2)CCCN(Cc2ccc(NC(C)=O)cc2)C1 (stereo not drawn)
8,> 50 µM (inactive),CCOC(=O)C1(CCOC)CCN(Cc2ccc(NC(C)=O)cc2)CC1
9,> 50 µM (inactive),CCOC(=O)C1(CCc2ccccc2)CCN(Cc2ccc(C#CC(C)(C)O)cc2)CC1
10,0.206 µM,CCOC(=O)C1(CCc2ccccc2)CCN(Cc2ccc(OC)cc2)CC1
11,> 50 µM (inactive),CCOC(=O)C1(Cc2ccccc2C)CCCN(Cc2ccc(NC(C)=O)cc2)C1 (stereo not drawn)
12,> 50 µM (inactive),CCOC(=O)C1(CC2CC2)CCN(C(=O)c2ccc(N3CCCCC3)cc2)CC1
13,> 50 µM (inactive),CCOC(=O)C1(Cc2ccccc2)CCCN(Cc2ccc(NC(C)=O)cc2)C1 (stereo not drawn)
14,0.394 µM,CCOC(=O)C1(Cc2ccccc2Cl)CCN(Cc2ccc(NC(C)=O)cc2)CC1
15,> 50 µM (inactive),CCOC(=O)C1CCN(Cc2ccc(NC(C)=O)cc2)CC1
16,> 50 µM (inactive),CCOC(=O)C1(CCc2ccccc2)CCCN(Cc2ccc(N3CCNC3=O)cc2)C1 (stereo not drawn)
17,0.605 µM,CCOC(=O)C1(CCc2ccccc2)CCN(Cc2c(O)cccc2OC)CC1
18,> 50 µM (inactive),C=Cc1ccc(C(=O)N2CCC(CCc3ccccc3)(C(=O)OCC)CC2)cc1
19,> 50 µM (inactive),CCOC(=O)C1CCN(C(=O)c2ccc(N(C)C)cc2)CC1
20,> 50 µM (inactive),CCOC(=O)C1(CCOC)CCN(Cc2ccc(N(C)c3ccccc3)cc2)CC1
21,> 50 µM (inactive),C=Cc1ccc(C(=O)N2CCC(CCCc3ccccc3)(C(=O)OCC)CC2)cc1
22,> 50 µM (inactive),CCOC(=O)C1CCN(Cc2ccc(N(C)C)cc2)CC1
23,5.16 µM,CC(=O)Nc1ccc(CN2CCCC(CO)(CCc3ccccc3)C2)cc1 (stereo not drawn)
24,> 50 µM (inactive),CCOC(=O)C1(CCc2ccccc2)CCN(Cc2ccc(O)cc2)CC1
25,> 50 µM (inactive),CCOC(=O)C1(CCOC)CCCN(Cc2ccc(NC(C)=O)cc2)C1 (stereo not drawn)
26,> 50 µM (inactive),O=C(O)C1CCCCC1C(=O)Nc1ccc(CN2CCCCC2)cc1 (stereo not drawn)
27,> 50 µM (inactive),CCOC(=O)C1(CC2CC2)CCN(Cc2ccc(NC(C)=O)cc2)CC1
28,> 50 µM (inactive),CCOC(=O)C1(CCc2ccccc2)CCN(Cc2ccncc2)CC1
